For orientation: CC50 means the concentration that lowers cell viability or growth by half. Low values mean greater toxicity to the cells, high ones lower toxicity to the cells.

The test system of data set [1] is integrated proviral HIV-1 DNA. Briefly: Integrated proviral HIV-1 DNA by Alu-PCR in LC5-RIC cells. In kind it is cell-based. As to conditions: HIV-1LAI, 48 h, concentrations >2x IC90, normalized to DMSO. How it is done:
Quantitative analysis of integrated copies of HIV proviral DNA by Alu-PCR was performed essentially as described in[46]. Briefly, LC5-RIC cells seeded at a density of 100,000 cells per well in 12-well plates and incubated for 24 h were exposed to test compounds and HIV-1LAI virus inoculum at an MOI of 0.5 and incubated for further 48 h at 37 °C, 5% CO2. Subsequently, cells were harvested and genomic DNA (gDNA) was extracted using the QIAamp DNA Mini Kit (QIAGEN) according to the manufacturer’s protocol. The relative amount of integrated proviral HIV-1 DNA was determined by two-step Alu-PCR[46]. The relative amounts of integrated proviral HIV-1 DNA in treated versus untreated samples were calculated by the 2^(−ΔΔCt) method, with ΔCT values representing CT (HIV) - CT (β-globin) for each sample and ΔΔCT values representing values of treated samples normalized to untreated samples.

Data set [2] relates to HIV-1LAI. Briefly: EASY-HIT assay: infectious virus production by LC5-RIC reporter cells exposed to HIV-1LAI. In kind it is cell-based. How it is done:
To identify natural compounds with anti-HIV activity we screened a collection of 10,000 natural compounds: Anti-HIV activity was evaluated by determining compound effects on infectious virus production by LC5-RIC cells which are highly susceptible for HIV and contain a DsRed1-encoding reporter gene activated by HIV-infection[6]–[8]. For screening, cultures of LC5-RIC reporter cells were first exposed to virus in the presence of the compound (first-step of the assay). Subsequently, supernatants of these cultures were transferred to secondary plates with uninfected LC5-RIC cells. The fluorescent signal of the cultures in the secondary plates served as a measure of compound effects on infectious virus production.
Anti-HIV activities of compounds were profiled in LC5-RIC cells with the EASY-HIT assay as described in[6]. Briefly, LC5-RIC cells were first exposed to virus and compounds (first step of the assay). Compound effects on infectious virus production were determined by transferring aliquots of supernatants of compound-treated cultures to secondary plates and measurement of fluorescent signal intensities in secondary plates after 72 h (second step of the assay). Fluorescent signal intensities determined for compound-treated cultures were normalized to those determined for untreated virus-exposed cultures.

A further data set concerns HIV-2. On the set-up: method as in PMID 22293827, PMID 10465070. As to conditions: virus intrinsically resistant; cited from earlier work.
Data set [3] deals with HIV-1LAI. Briefly: Photostability of anti-HIV activity (24 h illumination vs dark, EASY-HIT read-out). In kind it is cell-based. As to conditions: 24 h illumination; compounds at IC90; LC5-RIC. As to the method:
Figure 1 Profiling of photostability of anti-HIV activity of Aureothin and synthetic Aureothin-derivatives. Anti-HIV activity of compound samples illuminated for 24 h were normalised to anti-HIV activity of samples of the same compound kept in the dark. Anti-HIV activity was measured by quantifying the amounts of infectious virus produced by HIV-1LAI exposed LC5-RIC cells treated with compounds at IC90 concentrations (Supplementary Table S1). […] Shown are means of at least three independent experiments with biological triplicates (n ≥ 3; m = 3) and the standard error of the mean (SEM) indicated.
LC5-RIC cells were plated as described for the EASY-HIT assay. […] Plates were incubated either in the dark or under constant illumination with a commercially available desk lamp (2X Philips Master PL-S-9W/840/2 P, 30 cm between light source and compounds) for 24 h at room temperature. For analysis of anti-HIV activity, compound samples were transferred to LC5-RIC cells and their anti-HIV activity determined by measuring compound effects on infectious virus production with the EASY-HIT assay. Relative photostability was calculated by normalizing the anti-HIV activity of the illuminated compounds to the antiviral activity of compounds kept in the dark.

The test system of data set [4] is HIV-1LAI. Briefly: Inhibition of HIV infection of human PBMCs (infectious virus production, read out on LC5-RIC cells). In kind it is cell-based. As to conditions: human PBMCs exposed to HIV-1LAI, mean ± SD. How it is done:
To evaluate anti-HIV efficacies of test compounds in primary human target cells, stimulated PBMCs were seeded in 96-well plates at a density of 500,000 cells per well, different #7concentrations of the compound (serial dilutions) and virus inoculum (MOI of 0.5) added to the PBMCs and cultures incubated for 48 h. Infectious virus production was quantified by transferring 35 µl of supernatant from the PBMC cultures to LC5-RIC cells, seeded in black 96-well plates one day earlier. LC5-RIC cultures were then incubated for 72 h and analysed for DsRed1 reporter expression and anti-HIV activity calculated as described for the EASY-HIT assay.

A further data set relates to LC5-RIC cells. Briefly: CellTiter-Glo 2.0 cell viability assay in LC5-RIC cells. In kind it is cell-based. As to the method:
The following assays were used to profile cell safety of compound treatment in HIV-exposed cultures (LC5-RIC or PBMC): (1) CellTox^TM Green Cytotoxicity Assay, Promega, measures binding of a fluorescent dye to DNA of cells with impaired membrane integrity; (2) CellTiter-Glo® 2.0 Assay, Promega, which measures the amount of ATP in viable cells after lysis using an assay with luminescence read-out. Cells were plated into black 96-well plates followed by overnight incubation at 37 °C, 5% CO2. Compounds dissolved in DMSO were screened at multiple concentrations from 0.6 to 10,000 nM at a final DMSO concentration of 0.04% followed by additional 48 h incubation. Both assays were performed according to manufacturer’s recommendations and consecutively in the above mentioned order. Cells were washed once with PBS between the assays.
For orientation: ATP-based viability assays read luminescence as a measure of living cells.

Where [5] appears, read: Human immunodeficiency virus 1, read-out: IC50, half maximal inhibitory concentration.
Where [6] appears, read: Human immunodeficiency virus 1, LC5-RIC cells exposed to HIV-1LAI, infectious virus production, mean ± SD, read-out: IC50, half maximal inhibitory concentration.

Turning to `C[C@@H]1CCO[C@H]2Cn3cc(C(=O)NCc4ccc(F)cc4F)c(=O)c(O)c3C(=O)N12` [Dolutegravir], in data set [1], the “reduction of levels of integrated proviral DNA” value is more than 90%. For the same molecule, the IC50 in the data set with HIV-1LAI [2] (setting [5]) is approximately 0.001 µM.

Take `O=C1Nc2ccc(Cl)cc2[C@@](C#CC2CC2)(C(F)(F)F)O1` [Efavirenz]: the “activity against HIV-2” value in the data set on HIV-2 is reported as “ineffective against HIV-2”. The “reduction of levels of integrated proviral DNA” value in data set [1] is listed as more than 90%. The IC50 in the data set with HIV-1LAI [2] (setting [6]) was approximately 0.001 µM.

Turning to `COc1oc([C@H]2C/C(=C/C(C)=C/C(C)=C/C(C)=C/c3ccc([N+](=O)[O-])cc3)CO2)c(C)c(=O)c1C` [Neoaureothin], the IC50 with HIV-1LAI [2] (setting [6]) amounted to 0.0022 ± 6e-05 µM.

As for `CC(C)(C)NC(=O)[C@@H]1C[C@@H]2CCCC[C@@H]2CN1C[C@@H](O)[C@H](Cc1ccccc1)NC(=O)[C@H](CC(N)=O)NC(=O)c1ccc2ccccc2n1` [Saquinavir], the IC50 in the data set on HIV-1LAI [2] (setting [5]) is approximately 0.01 µM.

Take `COc1oc([C@H]2C/C(=C/C(C)=C/c3ccc([N+](=O)[O-])cc3)CO2)c(C)c(=O)c1C` [compound 1, Aureothin]: in the data set with HIV-1LAI [3], the “loss of anti-HIV-activity compared to the non-illuminated controls” value is reported as not below 50%. For the same molecule, the IC50 worked out at 0.0117 ± 0.00137 µM in the data set with HIV-1LAI [4] (read-out: IC50, half maximal HIV-inhibitory concentration) and 0.0053 ± 0.0004 µM with HIV-1LAI [2] (LC5-RIC cells exposed to HIV-1LAI, infectious virus production, mean ± SD, read-out: IC50, half maximal inhibitory concentration). For the same molecule, the IC90 was 0.045 ± 0.00333 µM in the data set with HIV-1LAI [4] (read-out: IC90, 90% HIV-inhibitory concentration) and 0.0268 ± 0.00254 µM with HIV-1LAI [2] (read-out: IC90, 90% inhibitory concentration, LC5-RIC cells exposed to HIV-1LAI, infectious virus production, mean ± SD). For the same molecule, in the data set on LC5-RIC cells, the CC50 is more than 10 µM.

In the case of Enfuvirtide, in the data set with HIV-2, the “activity against HIV-2” value is reported as “ineffective against HIV-2”.
